Key:
Format in all cases: cell-based
human P2X2/3 receptors = biological target: T1, human P2X2/3 receptors (Homo sapiens, UniProt P56373+Q9UBL9); assay: Intracellular calcium measurement, antagonist activity at human P2X2/3 receptors (hP2X23 1321N1), Fluo8; settings: for IC50: column 4); 1321N1 cells, human P2X2/3, Fluo8, agonist ATP at EC50; read-out: 4) hP2X2/3 IC50 [nM] (1321N1); for hP2X23/hP2X3* Selectivity (1321N1): ratio of column 4) hP2X2/3 to column 3) hP2X3, 1321N1
T1 construct: expressed in transfected cells; host or cells: human astrocytoma 1321N1 (1312N1 [sic])
T1 sequence (P56373 1-397): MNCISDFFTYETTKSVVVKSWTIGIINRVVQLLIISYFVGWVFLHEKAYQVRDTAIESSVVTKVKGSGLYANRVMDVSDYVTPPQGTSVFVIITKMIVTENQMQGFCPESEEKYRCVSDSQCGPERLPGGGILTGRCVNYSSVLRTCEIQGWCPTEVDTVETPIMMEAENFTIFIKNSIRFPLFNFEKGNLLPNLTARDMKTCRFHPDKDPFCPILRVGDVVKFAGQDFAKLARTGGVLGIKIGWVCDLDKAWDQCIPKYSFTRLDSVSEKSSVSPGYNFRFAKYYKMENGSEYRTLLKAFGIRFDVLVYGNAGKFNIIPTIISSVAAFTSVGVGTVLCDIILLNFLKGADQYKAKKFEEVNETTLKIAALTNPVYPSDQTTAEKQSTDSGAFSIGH
T1 sequence (Q9UBL9 1-471): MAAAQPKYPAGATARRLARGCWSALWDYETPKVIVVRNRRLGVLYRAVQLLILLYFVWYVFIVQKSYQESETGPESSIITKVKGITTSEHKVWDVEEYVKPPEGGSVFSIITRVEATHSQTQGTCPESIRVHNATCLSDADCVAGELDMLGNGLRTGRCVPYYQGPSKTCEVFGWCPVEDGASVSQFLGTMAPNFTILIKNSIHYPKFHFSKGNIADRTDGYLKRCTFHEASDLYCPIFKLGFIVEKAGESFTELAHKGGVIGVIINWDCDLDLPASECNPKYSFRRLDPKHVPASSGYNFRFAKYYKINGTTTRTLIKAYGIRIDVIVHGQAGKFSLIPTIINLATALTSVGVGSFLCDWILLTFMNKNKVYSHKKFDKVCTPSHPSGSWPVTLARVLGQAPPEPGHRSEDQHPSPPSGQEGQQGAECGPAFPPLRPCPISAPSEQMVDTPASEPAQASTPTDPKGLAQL
Summary of the method: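 Inhibition of ATP-triggered Ca2+ transients is measured in 1321N1 cells expressing P2X3 homotrimers or P2X2/3 heterotrimers.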

human P2X3 receptor [1] = biological target: T2, human P2X3 receptor (Homo sapiens, UniProt P56373); assay: Intracellular calcium measurement to assess antagonist activity at human P2X3 receptors (hP2X3 CHO), photina luminescence; design: expressed in transfected cells; host or cells: Chinese hamster ovary (CHO) cells; settings: column 2), CHO cells, agonist α,β-methylene-ATP at EC50
T2 sequence (P56373 1-397): T1 sequence (P56373 1-397)
Summary of the method: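 CHO cells stably expressing human P2X3 and mitochondrial photina, plated the day before at 30 °C, then loaded 3 h at 37 °C in 2 mM Ca-tyrode buffer with 5 μg/ml coelenterazine. Agonist-evoked calcium luminescence read immediately; inhibition seen as signal decrease.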

human P2X3 receptor [2] = biological target: T2, human P2X3 receptor; assay: Intracellular calcium measurement, antagonist activity at human P2X3 receptors (hP2X3 1321N1), Fluo8; design: expressed in transfected cells; host or cells: human astrocytoma 1321N1 (1312N1 [sic]); settings: column 3); 1321N1 cells, human P2X3, Fluo8, agonist ATP at EC50
Protocol: 3) And 4) Intracellular Calcium Measurement to Compare Antagonist Activity at Human P2X3 Receptors (hP2X3 1321N1) and at Human P2X2/3 Receptors (hP2X23 1321N1)
The comparison of antagonistic activity at the P2X3 versus the P2X2/3 receptor of the compounds of the invention were performed by use of recombinant cell lines. These cell lines derived originally from the human astrocytoma cell line […] (Macintyre E H, Pontén J, Vatter A E. Acta Pathol Microbiol Scand A. 1972; 80(2):267-83). The cell lines are stably transfected with the human P2X3 receptor forming homotrimeric P2X3 receptors or are co-transfected with P2X2 and P2X3 forming heterotrimeric P2X2/3 receptors. Stimulation of the receptors with the agonist ATP leads to a conformational change of the receptors and influx of extracellular calcium ions through the open ion channel. The cytoplasmatic calcium transient is detected via the calcium sensitive dye Fluo8. The strength of Fluo8 fluorescence signal corresponds to the level of receptor activation. An inhibitor would decrease the signal depending on its potency and concentration. Fluorescence was measured by use of a suitable fluorescence reader.
On the day before the assay, the cells were plated in culture medium (DMEM high glucose, 10% FCS, 1% MEM non-essential amino acids, 4 mM Glutamax) in 384-well poly-D-lysine coated microtiter plates and kept in a cell incubator (96% humidity, 5% v/v CO2, 37° C.). On the day of the assay medium was exchanged by Fluo8 containing buffer and incubated for 60 minutes. Test compounds were added at various concentrations and plates were incubated for 10 minutes. In the fluorescence reader a 3 seconds baseline measurement was performed and the agonist ATP was applied at EC50 concentration of the respective receptor during constant fluorescence measurement for 120 seconds.

Compound | IC50 (human P2X2/3 receptors) | hP2X23/hP2X3* Selectivity (1321N1) (human P2X2/3 receptors) | IC50 (human P2X3 receptor [1]) | IC50 (human P2X3 receptor [2])
CCNc1cc2n(CC(=O)Nc3ccc(F)cn3)c3c(c(=O)n2n1)CN(C(C)C)C3=O [Example 173] | 8900 nM | 85 | 58 nM | 104 nM
CCc1cc2n(CC(=O)Nc3ccc(C)cn3)c3c(c(=O)n2n1)CN(CC1CCOC1)C3=O (centres unmarked) [Example 61] | > 23000 nM | >12 | 695 nM | 1930 nM
CCc1cc2n(CC(=O)Nc3ccc(F)cn3)c3c(c(=O)n2n1)CN(CC(=O)NC(C)C)C3=O [Example 292] | > 32000 nM | >267 | 112 nM | 120 nM
COCCN1Cc2c(n(CC(=O)Nc3ccc(F)cn3)c3cc(CC(C)C)nn3c2=O)C1=O [Example 98] | 2600 nM | 211 | 8 nM | 12 nM
CC(C)N1Cc2c(n(CC(=O)Nc3ccc(F)cn3)c3cc(C4CCN(C5CCC5)CC4)nn3c2=O)C1=O [Example 252] | > 32000 nM | >91 | 460 nM | 350 nM
CC(C)N1Cc2c(n(CC(=O)Nc3ccc(F)cn3)c3cc(NCCO)nn3c2=O)C1=O [Example 276, N-(5-fluoropyridin-2-yl)-2-{2-[(2-hydroxyethyl)amino]-5,8-dioxo-6-(propan-2-yl)-5,6,7,8-tetrahydro-4H-pyrazolo[1,5-a]pyrrolo[3,4-d]pyrimidin-4-yl}acetamide] | > 20200 nM | >223 | 130 nM | 91 nM
CC(C)N1Cc2c(n(CC(=O)Nc3ccc(F)cn3)c3cc(NC(=O)C4CCOCC4)nn3c2=O)C1=O [Example 284] | 9350 nM | 201 | 57 nM | 47 nM
CCc1cc2n(CC(=O)Nc3ccc(F)cn3)c3c(c(=O)n2n1)CN(C[C@@H]1COCCN1)C3=O [Example 248, 2-{2-ethyl-6-[(3R)-morpholin-3-ylmethyl]-5,8-dioxo-5,6,7,8-tetrahydro-4H-pyrazolo[1,5-a]pyrrolo[3,4-d]pyrimidin-4-yl}-N-(5-fluoropyridin-2-yl)acetamide] | > 32000 nM | >43 | 185 nM | 740 nM
CCc1cc2n(CC(=O)Nc3ccc(F)cn3)c3c(c(=O)n2n1)CN(C(COC)COC)C3=O [Example 99] | 9100 nM | 607 | 21 nM | 15 nM
CC(C)N1Cc2c(n(CC(=O)Nc3ccc(F)cn3)c3cc(C4CCN(C(=O)OC(C)(C)C)CC4)nn3c2=O)C1=O [Example 227, tert-butyl 4-[4-{2-[(5-fluoropyridin-2-yl)amino]-2-oxoethyl}-5,8-dioxo-6-(propan-2-yl)-5,6,7,8-tetrahydro-4H-pyrazolo[1,5-a]pyrrolo[3,4-d]pyrimidin-2-yl]piperidine-1-carboxylate] | 9300 nM | 132 | 24 nM | 71 nM
COC[C@H](C)N1Cc2c(n(CC(=O)Nc3ccc(F)cn3)c3cc(-c4cc(C)ncc4C)nn3c2=O)C1=O [Example 158] | 1400 nM | 424 | 10 nM | 3 nM
Cc1ccc(-c2cc3n(CC(=O)Nc4ccc(F)cn4)c4c(c(=O)n3n2)CN(C(C)C)C4=O)cn1 [Example 154] | 765 nM | 96 | 21 nM | 8 nM
CCc1cc2n(CC(=O)Nc3ccc(F)cn3)c3c(c(=O)n2n1)CN(C[C@H]1CN(C2CC2)CCO1)C3=O [Example 258] | 1080 nM | 21 | 66 nM | 52 nM
Cc1ccc(-c2cc3n(CC(=O)Nc4ccc(F)cn4)c4c(c(=O)n3n2)CN(C(C)C)C4=O)nc1 [Example 69] | 1700 nM | 447 | 8 nM | 4 nM
CCc1cc2n(CC(=O)Nc3ccc(F)cn3)c3c(c(=O)n2n1)CN(CC1CCNC1)C3=O.Cl (centres unmarked) [Example 238] | > 32000 nM | >49 | 550 nM | 650 nM
CC(C)N1Cc2c(n(CC(=O)Nc3ccc(F)cn3)c3cc(C4CCN(C(=O)OC(C)(C)C)C4)nn3c2=O)C1=O (racemic) [Example 226, tert-butyl(±)-3-[4-{2-[(5-fluoropyridin-2-yl)amino]-2-oxoethyl}-5,8-dioxo-6-(propan-2-yl)-5,6,7,8-tetrahydro-4H-pyrazolo[1,5-a]pyrrolo[3,4-d]pyrimidin-2-yl]pyrrolidine-1-carboxylate] | 3050 nM | 78 | 22 nM | 39 nM
CNC(=O)c1cc2n(CC(=O)Nc3ccc(F)cn3)c3c(c(=O)n2n1)CN([C@@H](C)COC)C3=O [Example 193] | > 22500 nM | >180 | 155 nM | 125 nM
CC(C)N1Cc2c(n(CC(=O)Nc3ccc(F)cn3)c3cc(C4CCOCC4)nn3c2=O)C1=O [Example 58] | 9850 nM | 277 | 24 nM | 36 nM
CC(C)N1Cc2c(n(CC(=O)Nc3ccc(F)cn3)c3cc(NC4CC4)nn3c2=O)C1=O [Example 167, 2-[2-(cyclopropylamino)-5,8-dioxo-6-(propan-2-yl)-5,6,7,8-tetrahydro-4H-pyrazolo[1,5-a]pyrrolo[3,4-d]pyrimidin-4-yl]-N-(5-fluoropyridin-2-yl)acetamide] | 2300 nM | 128 | 36 nM | 18 nM
Cc1ccc(-c2cc3n(CC(=O)Nc4ccc(F)cn4)c4c(c(=O)n3n2)CN(C(C)C)C4=O)c(C)n1 [Example 157] | > 32000 nM | >593 | 26 nM | 54 nM
CCc1cc2n(CC(=O)Nc3ccc(F)cn3)c3c(c(=O)n2n1)CN(CC1CCN(C(=O)OC(C)(C)C)C1)C3=O (centres unmarked) [Example 80] | 1950 nM | 31 | 32 nM | 63 nM
CCc1cc2n(CC(=O)Nc3ccc(F)cn3)c3c(c(=O)n2n1)CN(C[C@H]1CN(C)CCO1)C3=O [Example 255, 2-(2-ethyl-6-{[(2R)-4-methylmorpholin-2-yl]methyl}-5,8-dioxo-5,6,7,8-tetrahydro-4H-pyrazolo[1,5-a]pyrrolo[3,4-d]pyrimidin-4-yl)-N-(5-fluoropyridin-2-yl)acetamide] | 11300 nM | 26 | 400 nM | 440 nM
CC(C)Cc1cc2n(CC(=O)Nc3ccc(F)cn3)c3c(c(=O)n2n1)CN(C(C)C)C3=O [Example 82] | 1870 nM | 239 | 6 nM | 8 nM
